{"source": "paper PMC5064002", "about": "“Sintokamide A Is a Novel Antagonist of Androgen Receptor That Uniquely Binds Activation Function-1 in Its Amino-terminal Domain” (The Journal of Biological Chemistry, 2016)", "key": {"[1]": {"target": "T1, progesterone receptor (PR)-β (Homo sapiens, UniProt P06401)", "T1 construct": "expressed in transfected cells; host or cells: LNCaP", "T1 sequence (P06401 1-933)": "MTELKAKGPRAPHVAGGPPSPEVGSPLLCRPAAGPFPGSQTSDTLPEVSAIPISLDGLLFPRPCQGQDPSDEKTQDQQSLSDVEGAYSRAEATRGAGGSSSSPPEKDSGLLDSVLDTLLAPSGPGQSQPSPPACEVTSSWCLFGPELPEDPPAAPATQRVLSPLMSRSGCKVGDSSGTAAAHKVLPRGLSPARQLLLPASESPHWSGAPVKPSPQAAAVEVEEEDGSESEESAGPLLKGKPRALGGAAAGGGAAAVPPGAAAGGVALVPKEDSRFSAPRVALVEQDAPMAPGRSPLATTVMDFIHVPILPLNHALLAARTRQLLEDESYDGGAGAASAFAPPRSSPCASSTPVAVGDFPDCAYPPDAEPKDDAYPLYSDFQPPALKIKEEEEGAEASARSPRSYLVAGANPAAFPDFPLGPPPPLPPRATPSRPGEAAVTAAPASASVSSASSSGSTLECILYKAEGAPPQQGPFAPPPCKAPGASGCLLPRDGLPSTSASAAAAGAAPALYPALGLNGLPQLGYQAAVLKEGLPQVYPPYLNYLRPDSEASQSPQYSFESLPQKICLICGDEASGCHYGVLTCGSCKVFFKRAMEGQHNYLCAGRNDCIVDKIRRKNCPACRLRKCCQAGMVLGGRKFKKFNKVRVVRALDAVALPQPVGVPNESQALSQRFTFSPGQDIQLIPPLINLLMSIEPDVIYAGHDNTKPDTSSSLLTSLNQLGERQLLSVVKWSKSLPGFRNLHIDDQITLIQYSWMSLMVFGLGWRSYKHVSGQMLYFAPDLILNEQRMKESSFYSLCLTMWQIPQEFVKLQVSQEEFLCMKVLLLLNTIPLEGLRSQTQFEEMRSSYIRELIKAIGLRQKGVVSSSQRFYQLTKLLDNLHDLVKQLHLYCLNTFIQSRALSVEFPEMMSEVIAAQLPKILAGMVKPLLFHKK", "test": "Steroid receptor specificity: PRE-luciferase reporter in LNCaP cells", "format": "cell-based", "details": "10 μM compound, 10 nM 4-pregnene-3,20-dione, 48 h", "description": "LNCaP cells were transfected with the reporter plasmid PSA(6.1kb)-luciferase, PRE-luciferase, or GRE-luciferase and expression vector for progesterone receptor (PR)-β or glucocorticoid receptor (GR)-α in serum-free, phenol red-free medium using Lipofectin (Invitrogen). […] After 48 h of treatment, cells were lysed and analyzed for luciferase activities.\nFIGURE 1. […] A, LNCaP cells were transfected with PSA (6.1 kb)-luciferase, PRE-luciferase, or GRE-luciferase reporters and expression vector for PRβ or GRα. […] Error bars represent mean percentage of vehicle activity ±S.E. of at least three independent experiments with triplicate wells. SINT1, 10 μM; […]; ***, p < 0.001. […]. Error bars represents mean ± S.E. of three technical replicates. […] DAPI staining indicates the location of the nucleus. Scale bars, 20 μm."}, "LNCaP95 xenografts": {"test_system": "LNCaP95 xenografts", "test": "LNCaP95 xenografts in castrated mice", "format": "in vivo, NOD-SCID mice", "description": "At 48 h, total RNA was isolated using a PureLink RNA Mini kit (Invitrogen). For in vivo expression, tumors were harvested 3 days after last treatment, and RNA was extracted using TRIzol. Prior to cDNA generation, 4 μg of RNA were DNase-treated using DNase I (amplification grade; Sigma-Aldrich). DNase-treated RNA was split into two tubes (+RT and −RT), and cDNA was generated using the High Capacity RNA-cDNA kit (Applied Biosystems). Once complete, both reactions were adjusted to 5 ng/μl and stored at −20 °C. Approximately 5 ng of diluted cDNA and gene-specific primers were mixed with Platinum SYBR Green qPCR SuperMix-UDG with ROX (Invitrogen). The transcripts were measured using an ABI PRISM 7900 Sequence Detection System (Invitrogen). For all quantitative RT-PCR experiments, each sample was tested in triplicate, and gene expression levels were normalized to the reference gene RPL13A. Neuron-specific enolase (ENO2) (Gene ID, 2026; pair 1) and synaptophysin (SYP) (Gene ID, 6855; pair 2) human primers were from Sigma Life Science. All other primers were described previously ([4], [9]) and purchased from Integrated DNA Technologies.\nMale NOD-SCID mice bearing subcutaneous LNCaP or LNCaP95 tumors were castrated when the tumor volume reached ∼100 mm^3. Seven days after castration, animals were injected intratumorally with 30 mg/kg of body weight SINT1 or a matching volume of vehicle (DMSO) every 3 days for a total of 15 days. Animal behavior and body weight were observed throughout the study period for signs of toxicity. Tumor volumes were calculated by the formula length × width × height × 0.5236. Tumors were excised 3 days after the last injection and prepared for immunohistochemistry or gene expression."}}, "data": [{"smiles": "CCC(=O)NC(CC(C)C(Cl)(Cl)Cl)C(=O)N1C(=O)C=C(OC)C1CC(C)C(Cl)Cl", "note": "(stereo not shown) [SINT1, Sintokamide A]", "values": [{"measurement": "PR transcriptional activity (PRE-luciferase)", "setting": "[1]", "result": "did not affect"}, {"measurement": "growth of LNCaP95 tumors", "setting": "LNCaP95 xenografts; castrated mice, 30 mg/kg intratumorally every 3 days", "result": "significantly reduce the growth"}, {"measurement": "levels of expression of ENO2 and SYP genes (neuroendocrine differentiation)", "setting": "LNCaP95 xenografts; harvested LNCaP95 xenografts", "result": "no significant changes"}, {"measurement": "levels of FL-AR and AR-V7 transcripts in harvested LNCaP95 xenografts", "setting": "LNCaP95 xenografts; tumors harvested 3 days after last treatment", "result": "not significantly altered"}]}]}
